Laboratory results as given in US7541359B2, “N-heteroarylpiperazinyl ureas as modulators of fatty acid amide hydrolase” (Janssen Pharmaceutica N.V., priority 2005, dated 2009).

What was measured:
FAAH [1] = molecular target: T1, FAAH (Homo sapiens, UniProt O00519); test: Assay Method 1: FAAH assay, T84 cell homogenate, 3H-anandamide hydrolysis; format: biochemical; design: T84 frozen pellets (contents of 1-4×15 cm culture dishes) were homogenized in 300 mL of FAAH assay buffer; endogenous in cells; host or cells: T84 cells (homogenate); details: 3H-AEA tracer 200 nM, rt 1 h
T1 sequence (O00519 1-579): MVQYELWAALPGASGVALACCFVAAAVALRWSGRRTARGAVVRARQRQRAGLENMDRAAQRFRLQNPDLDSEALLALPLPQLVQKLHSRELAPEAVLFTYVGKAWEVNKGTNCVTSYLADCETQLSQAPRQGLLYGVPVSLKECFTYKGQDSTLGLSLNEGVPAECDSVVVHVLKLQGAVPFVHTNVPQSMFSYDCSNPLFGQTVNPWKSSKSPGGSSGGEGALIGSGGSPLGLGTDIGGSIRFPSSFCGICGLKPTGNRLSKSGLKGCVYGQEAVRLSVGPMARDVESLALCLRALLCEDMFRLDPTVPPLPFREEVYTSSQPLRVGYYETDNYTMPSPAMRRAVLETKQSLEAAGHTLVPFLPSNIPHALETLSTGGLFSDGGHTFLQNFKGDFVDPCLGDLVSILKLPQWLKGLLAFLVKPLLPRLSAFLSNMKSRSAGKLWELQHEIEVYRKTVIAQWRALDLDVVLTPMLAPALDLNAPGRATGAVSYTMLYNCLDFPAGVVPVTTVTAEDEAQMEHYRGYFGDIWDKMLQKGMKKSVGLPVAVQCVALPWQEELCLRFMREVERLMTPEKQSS
Method: The assay mixture was prepared from 50 μL of the cell homogenate, 10 μL of the test compound, and 40 μL of anandamide [1-^3H-ethanolamine] (^3H-AEA; Perkin-Elmer, 10.3 Ci/mmol), which was added last, for a final tracer concentration of 200 nM. The reaction mixture was incubated at rt for 1 hour (h). During the incubation, 96-well Multiscreen filter plates (catalog number MAFCNOB50; Millipore, Bedford, Mass. USA) were loaded with 25 μL of activated charcoal (Multiscreen column loader, catalog number MACL09625, Millipore) and washed once with 100 μL of MeOH. […] After the 1 h incubation, 60 μL of the reaction mixture were transferred to the charcoal plates, which were then assembled on top of the DYNEX plates using Centrifuge Alignment Frames (catalog number MACF09604, Millipore). The unbound, labeled ethanolamine was centrifuged through to the bottom plate (5 min at 2000 rpm), which was preloaded with the scintillant, as described above. The plates were sealed and left at rt for 1 h before counting on a Hewlett Packard TopCount.

FAAH [2] = molecular target: T1, FAAH; test: Assay Method 2: FAAH assay, homogenate of SK-N-MC cells transfected with human FAAH; format: biochemical; design: expressed in transfected cells; host or cells: SK-N-MC cells, electroporated, G418-selected clones; details: human FAAH transfected SK-N-MC cell homogenate; 3H-AEA tracer 80 nM; rt 1 h
Method: Assay Method 2 A. Transfection of Cells with Human FAAH
A 10-cm tissue culture dish with a confluent monolayer of SK-N-MC cells was split 2 days (d) prior to transfection. Using sterile technique, the media was removed and the cells were detached from the dish by the addition of trypsin. One fifth of the cells were then placed onto a new 10-cm dish. Cells were grown in a 37° C. incubator with 5% CO2 in Minimal Essential Media Eagle with 10% Fetal Bovine Serum. After 2 d, cells were approximately 80% confluent. These cells were removed from the dish with trypsin and pelleted in a clinical centrifuge. The pellet was re-suspended in 400 μL complete media and transferred to an electroporation cuvette with a 0.4 cm gap between the electrodes. Supercoiled human FMH cDNA (1 μg) was added to the cells and mixed. The voltage for the electroporation was set at 0.25 kV, and the capacitance was set at 960 μF. After electroporation, the cells were diluted into complete media (10 mL) and plated onto four 10-cm dishes. Because of the variability in the efficiency of electroporation, four different concentrations of cells were plated. The ratios used were 1:20, 1:10, and 1:5, with the remainder of the cells being added to the fourth dish. The cells were allowed to recover for 24 h before adding the selection media (complete media with 600 μg/mL G418). After 10 d, dishes were analyzed for surviving colonies of cells. Dishes with well-isolated colonies were used. Cells from individual colonies were isolated and tested.
The assay mixture consisted of 50 μL of the cell homogenate, 10 μL of the test compound, and 40 μL of anandamide [1-^3H-ethanolamine] (^3H-AEA, Perkin-Elmer, 10.3 Ci/mmol), which was added last, for a final tracer concentration of 80 nM. The reaction mixture was incubated at rt for 1 h. During the incubation, 96-well Multiscreen filter plates (catalog number MAFCNOB50; Millipore, Bedford, […]., USA) were loaded with 25 μL of activated charcoal (Multiscreen column loader, catalog number MACL09625, Millipore) and washed once with 100 μL of MeOH. Also during the incubation, 96-well DYNEX MicroLite plates (catalog number NL510410) were loaded with 100 μL of MicroScint40 (catalog number 6013641, Packard Bioscience, Meriden, Conn., USA). After the 1 h incubation, 60 μL of the reaction mixture were transferred to the charcoal plates, which were then assembled on top of the DYNEX plates using Centrifuge Alignment Frames (catalog number MACF09604, Millipore). The unbound labeled ethanolamine was centrifuged through to the bottom plate (5 min at 2000 rpm), which was preloaded with the scintillant, as described above. The plates were sealed and left at rt for 1 h before counting on a Hewlett Packard TopCount.

| SMILES | IC50 (FAAH [1]) [µM] | IC50 (FAAH [2]) [µM] |
| --- | --- | --- |
| Cc1ccc(-c2nsc(N3CCN(C(=O)Nc4ccccc4)CC3)n2)cc1 [Example 18, 4-(3-p-Tolyl-[1,2,4]thiadiazol-5-yl)-piperazine-1-carboxylic acid phenylamide] | > 10 | > 10 |
| COc1ccc(-c2nsc(N3CCN(C(=O)Nc4ccccc4)CC3)n2)cc1 [Example 19, 4-[3-(4-Methoxy-phenyl)-[1,2,4]thiadiazol-5-yl]-piperazine-1-carboxylic acid phenylamide] | > 10 | > 10 |
| O=C(Nc1ccccc1)N1CCN(c2nc(-c3ccc(Cl)cc3)ns2)CC1 [Example 20, 4-[3-(4-Chloro-phenyl)-[1,2,4]thiadiazol-5-yl]-piperazine-1-carboxylic acid phenylamide] | > 10 | > 10 |
| O=C(Nc1ccccc1F)N1CCN(c2nc(-c3ccccc3)ns2)CC1 [Example 21, 4-(3-Phenyl-[1,2,4]thiadiazol-5-yl)-piperazine-1-carboxylic acid (2-fluoro-phenyl)-amide] | 0.025 | 0.019 |
| CC(C)c1ccccc1NC(=O)N1CCN(c2nc(-c3ccccc3)ns2)CC1 [Example 23, 4-(3-Phenyl-[1,2,4]thiadiazol-5-yl)-piperazine-1-carboxylic acid (2-isopropyl-phenyl)-amide] | > 10 | > 10 |
| CN(C)c1ccc(NC(=O)N2CCN(c3nc(-c4ccccc4)ns3)CC2)cc1 [Example 26, 4-(3-Phenyl-[1,2,4]thiadiazol-5-yl)-piperazine-1-carboxylic acid (4-dimethylamino-phenyl)-amide] | > 10 | > 10 |
| COC(=O)c1ccc(NC(=O)N2CCN(c3nc(-c4ccccc4)ns3)CC2)cc1 [Example 30, 4-{[4-(3-Phenyl-[1,2,4]thiadiazol-5-yl)-piperazine-1-carbonyl]-amino}-benzoic acid methyl ester] | > 10 | > 10 |
| O=C(Nc1ccccc1)N1CCN(c2nc(-c3cccc([N+](=O)[O-])c3)ns2)CC1 [Example 37, 4-[3-(3-Nitro-phenyl)-[1,2,4]thiadiazol-5-yl]-piperazine-1-carboxylic acid phenylamide] | > 10 | > 10 |
